Source: patent US5225607A, “Insecticidal ethers” (Imperial Chemical Industries PLC, priority 1985, dated 1993)

Columns and labels:
Format in all cases: in vivo
Musca domestica [1] = test: Knockdown test, Musca domestica (houseflies - adults); settings: cotton wool/sugar, 4 hours, read-out: grading of knockdown, MD/KD
Method in brief: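 Knockdown scores were banded: A 80–100%, B 50–79%, C <50%. Test preparations of 500, 250 or 100 ppm compound were made in acetone, then diluted with water containing 0.01% Lissapol NX, and applied to Musca domestica adults.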

Tetranychus urticae = test: Insecticidal/acaricidal test, Tetranychus urticae (spider mites - adult), contact; settings: 72 h, French bean leaf, 3 days, read-out: grading of mortality, TU
Method in brief: (§1)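 Compound dissolved in acetone, diluted with water containing 0.01% wetting agent to 500, 250 or 100 ppm. Pests on host plant or food; pests and/or medium treated. Mortality scored 1–3 days later, graded A (80–100%; 70–100% for S. exigua), B (50–79%; 50–69%), C (<50%).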

Blattella germanica = test: Insecticidal test, Blattella germanica (cockroach nymphs), residual; settings: 72 h, plastic pot, 3 days, read-out: grading of mortality, BG
Method in brief: as §1

Diabrotica balteata = test: Insecticidal test, Diabrotica balteata (rootworm larvae), residual; settings: 72 h, filter paper/maize seed, 3 days, read-out: grading of mortality, DB
Method in brief: as §1

Heliothis virescens = test: whole plant or invertebrate; settings: in Gossypium hirsutum, 72 h, read-out: grading of mortality, HV
Method in brief: as §1

Spodoptera exigua = test: Insecticidal test, Spodoptera exigua (lesser armyworm), residual; settings: 72 h, cotton leaf, 3 days, read-out: grading of mortality, SE
Experimental: The activity of the Product was determined using a variety of insect and acarine pests. The Product was used in the form of liquid preparations containing 500, 250 or 100 parts per million (ppm) by weight of the Product. The preparations were made by dissolving the Product in acetone and diluting the solutions with water containing 0.01% by weight of a wetting agent sold under the trade name "LISSAPOL" NX until the liquid preparations contained the required concentratio of the Product. "Lissapol" is a Registered Trade Mark.
The test procedure adopted with regard to each pest was basically the same and comprised supporting a number of the pests on a medium which was usually a host plant or a foodstuff on which the pests feed, and treating either or both the pests and the medium with the preparations. The mortality of the pests was then assessed at periods usually varying from one to three days after the treatment.
The results of the tests are given in Table IV for each of the Products, at the rate in parts per million given in the second column as a grading of mortality designated as A, B or C wherein A indicates 80-100% mortality or knockdown (70-100% in the case of Spodoptera exigua), B indicates 50-79% mortality or knockdown (50-69% in the case of Spodoptera exigua) and C indicates less than 50% mortality or knockdown.
In Table IV the pest organism used is designated by a letter code and the pest species, the support medium or food, and the type and duration of test is given in Table III.

Myzus persicae = test: Insecticidal test, Myzus persicae (aphids), contact; settings: 72 h, Chinese Cabbage leaf, 3 days, read-out: grading of mortality, MP
Method in brief: as §1

Nilaparvata lugens = test: Insecticidal test, Nilaparvata lugens (brown planthopper), contact; settings: 72 h, Cabbage leaf, 3 days, read-out: grading of mortality, NL
Method in brief: as §1

Musca domestica [2] = test: Insecticidal test, Musca domestica (houseflies - adults), contact; settings: 24 h, cotton wool/sugar, 1 day, read-out: grading of mortality, MD
Method in brief: as §1

Fc1ccc(COCC(c2ccc(OC(F)(F)F)cc2)C(F)(F)F)cc1Oc1ccccc1 (stereo not drawn) [Compound 25, 1,1,1-Trifluoro-2-(4-trifluoromethoxyphenyl)-3-(3-phenoxy-4-fluorobenzyloxy)propane]
pest or weed control at 100 ppm (Musca domestica [1]): 80 to 100%
mortality at 100 ppm (Tetranychus urticae): 80 to 100%
mortality at 100 ppm (Blattella germanica): 80 to 100%
mortality at 100 ppm (Diabrotica balteata): 80 to 100%
mortality at 100 ppm (Heliothis virescens): 80 to 100%
mortality at 100 ppm (Spodoptera exigua): 70 to 100%
mortality at 100 ppm (Myzus persicae): 80 to 100%
mortality at 100 ppm (Nilaparvata lugens): 80 to 100%
mortality at 100 ppm (Musca domestica [2]): 80 to 100%

FC(F)(F)Oc1ccc(C(COCc2cccc(Oc3ccccc3)n2)C(F)(F)F)cc1 (stereo not drawn) [Compound 28, 1,1,1-Trifluoro-2-(4-trifluoromethoxyphenyl)-3-(6-phenoxy-2-pyridylmethyloxy)propane]
pest or weed control at 100 ppm (Musca domestica [1]): 80 to 100%
mortality at 100 ppm (Tetranychus urticae): < 50%
mortality at 100 ppm (Blattella germanica): 80 to 100%
mortality at 100 ppm (Diabrotica balteata): 80 to 100%
mortality at 100 ppm (Heliothis virescens): 80 to 100%
mortality at 100 ppm (Spodoptera exigua): 70 to 100%
mortality at 100 ppm (Myzus persicae): 80 to 100%
mortality at 100 ppm (Nilaparvata lugens): 80 to 100%
mortality at 100 ppm (Musca domestica [2]): 80 to 100%

FC(F)(F)C(COCc1cccc(Oc2ccccc2)c1)c1ccc2c(c1)OCO2 (stereo not drawn) [Compound 31, 1,1,1-Trifluoro-2-(3,4-methylenedioxyphenyl)-3-(3-phenoxybenzyloxy)propane]
pest or weed control at 500 ppm (Musca domestica [1]): 80 to 100%
mortality at 500 ppm (Tetranychus urticae): < 50%
mortality at 500 ppm (Blattella germanica): 80 to 100%
mortality at 500 ppm (Diabrotica balteata): 80 to 100%
mortality at 500 ppm (Heliothis virescens): 80 to 100%
mortality at 500 ppm (Spodoptera exigua): 70 to 100%
mortality at 500 ppm (Myzus persicae): 80 to 100%
mortality at 500 ppm (Nilaparvata lugens): 80 to 100%
mortality at 500 ppm (Musca domestica [2]): 80 to 100%

FC(F)(F)C(COCc1cccc(Oc2ccc(Cl)cc2)c1)c1ccc2c(c1)OCO2 (stereo not drawn) [Compound 32, 1,1,1-Trifluoro-2-(3,4-methylenedioxyphenyl)-3-(3-(4-chlorophenoxy)benzyloxy)propane]
pest or weed control at 500 ppm (Musca domestica [1]): 80 to 100%
mortality at 500 ppm (Tetranychus urticae): < 50%
mortality at 500 ppm (Blattella germanica): 50 to 79%
mortality at 500 ppm (Diabrotica balteata): 80 to 100%
mortality at 500 ppm (Heliothis virescens): 80 to 100%
mortality at 500 ppm (Spodoptera exigua): 70 to 100%
mortality at 500 ppm (Myzus persicae): 50 to 79%
mortality at 500 ppm (Nilaparvata lugens): 80 to 100%
mortality at 500 ppm (Musca domestica [2]): 80 to 100%

Fc1ccc(C(Cl)(COCc2ccc(F)c(Oc3ccccc3)c2)C(F)(F)F)cc1 (stereo not drawn) [Compound 51, 1,1,1-Trifluoro-2-chloro-2-(4-fluorophenyl)-3-(3-phenoxy-4-fluorobenzyloxy)propane]
pest or weed control at 100 ppm (Musca domestica [1]): < 50%
mortality at 100 ppm (Tetranychus urticae): < 50%
mortality at 100 ppm (Blattella germanica): < 50%
mortality at 100 ppm (Diabrotica balteata): 80 to 100%
mortality at 100 ppm (Heliothis virescens): 80 to 100%
mortality at 100 ppm (Spodoptera exigua): 70 to 100%
mortality at 100 ppm (Myzus persicae): < 50%
mortality at 100 ppm (Nilaparvata lugens): 50 to 79%
mortality at 100 ppm (Musca domestica [2]): < 50%

FC(F)(F)Oc1ccc(C(Cl)(COCc2cccc(Oc3ccc(Cl)cc3)c2)C(F)(F)F)cc1 (stereo not drawn) [Compound 60, 1,1,1-Trifluoro-2-chloro-2-(4-trifluoromethoxyphenyl)-3-(3-(4-chlorophenoxy)benzyloxy)propane]
pest or weed control at 100 ppm (Musca domestica [1]): < 50%
mortality at 100 ppm (Tetranychus urticae): < 50%
mortality at 100 ppm (Blattella germanica): 80 to 100%
mortality at 100 ppm (Diabrotica balteata): < 50%
mortality at 100 ppm (Heliothis virescens): 80 to 100%
mortality at 100 ppm (Spodoptera exigua): 70 to 100%
mortality at 100 ppm (Myzus persicae): 50 to 79%
mortality at 100 ppm (Nilaparvata lugens): 80 to 100%
mortality at 100 ppm (Musca domestica [2]): < 50%

FC(F)(F)Oc1ccc(C(Cl)(COCc2cccc(Oc3ccccc3)n2)C(F)(F)F)cc1 (stereo not drawn) [Compound 61]
pest or weed control at 100 ppm (Musca domestica [1]): 80 to 100%
mortality at 100 ppm (Tetranychus urticae): 80 to 100%
mortality at 100 ppm (Blattella germanica): 80 to 100%
mortality at 100 ppm (Diabrotica balteata): 80 to 100%
mortality at 100 ppm (Heliothis virescens): 80 to 100%
mortality at 100 ppm (Spodoptera exigua): 70 to 100%
mortality at 100 ppm (Myzus persicae): 80 to 100%
mortality at 100 ppm (Nilaparvata lugens): 80 to 100%
mortality at 100 ppm (Musca domestica [2]): 80 to 100%

FC(F)(F)C(Cl)(COCc1cccc(Oc2ccccc2)c1)c1ccc2c(c1)OCO2 (stereo not drawn) [Compound 64, 1,1,1-Trifluoro-2-chloro-2-(3,4-methylenedioxyphenyl)-3-(3-phenoxybenzyloxy)propane]
pest or weed control at 500 ppm (Musca domestica [1]): 50 to 79%
mortality at 500 ppm (Tetranychus urticae): < 50%
mortality at 500 ppm (Blattella germanica): < 50%
mortality at 500 ppm (Diabrotica balteata): < 50%
mortality at 500 ppm (Heliothis virescens): 80 to 100%
mortality at 500 ppm (Spodoptera exigua): < 50%
mortality at 500 ppm (Myzus persicae): < 50%
mortality at 500 ppm (Nilaparvata lugens): < 50%
mortality at 500 ppm (Musca domestica [2]): 50 to 79%

FC(F)(F)C(Cl)(COCc1cccc(Oc2ccc(Cl)cc2)c1)c1ccc2c(c1)OCO2 (stereo not drawn) [Compound 65, 1,1,1-Trifluoro-2-chloro-2-(3,4-methylenedioxyphenyl)-3-(3-(4-chlorophenoxy)-benzyloxy)propane]
pest or weed control at 500 ppm (Musca domestica [1]): < 50%
mortality at 500 ppm (Tetranychus urticae): < 50%
mortality at 500 ppm (Blattella germanica): 80 to 100%
mortality at 500 ppm (Diabrotica balteata): < 50%
mortality at 500 ppm (Heliothis virescens): 80 to 100%
mortality at 500 ppm (Spodoptera exigua): 50 to 69%
mortality at 500 ppm (Myzus persicae): < 50%
mortality at 500 ppm (Nilaparvata lugens): < 50%
mortality at 500 ppm (Musca domestica [2]): < 50%

Fc1ccc(COCC(F)(c2ccc(Br)cc2)C(F)(F)F)cc1Oc1ccccc1 (stereo not drawn) [Compound 83, 1,1,1,2-Tetrafluoro-2-(4-bromophenyl)-3-(3-phenoxy-4-fluorobenzyloxy)propane]
pest or weed control at 500 ppm (Musca domestica [1]): 80 to 100%
mortality at 500 ppm (Tetranychus urticae): < 50%
mortality at 500 ppm (Blattella germanica): 80 to 100%
mortality at 500 ppm (Diabrotica balteata): 80 to 100%
mortality at 500 ppm (Heliothis virescens): 80 to 100%
mortality at 500 ppm (Spodoptera exigua): 70 to 100%
mortality at 500 ppm (Myzus persicae): 80 to 100%
mortality at 500 ppm (Nilaparvata lugens): 80 to 100%
mortality at 500 ppm (Musca domestica [2]): 80 to 100%

FC(F)(F)c1ccc(C(F)(COCc2cccc(Oc3ccccc3)c2)C(F)(F)F)cc1 (stereo not drawn) [Compound 84, 1,1,1,2-Tetrafluoro-2-(4-trifluoromethylphenyl)-3-(3-phenoxybenzyloxy)propane]
pest or weed control at 500 ppm (Musca domestica [1]): 80 to 100%
mortality at 500 ppm (Tetranychus urticae): 80 to 100%
mortality at 500 ppm (Blattella germanica): 80 to 100%
mortality at 500 ppm (Diabrotica balteata): 80 to 100%
mortality at 500 ppm (Heliothis virescens): 80 to 100%
mortality at 500 ppm (Spodoptera exigua): 70 to 100%
mortality at 500 ppm (Myzus persicae): 80 to 100%
mortality at 500 ppm (Nilaparvata lugens): 80 to 100%
mortality at 500 ppm (Musca domestica [2]): 80 to 100%

Cc1ccc(C(O)(COCc2cccc(Oc3ccccc3)c2)C(F)(F)F)cc1 (stereo not drawn) [Compound 120, 1,1,1-Trifluoro-2-(4-methylphenyl)-3-(3-phenoxybenzyloxy)propan-2-ol]
pest or weed control at 500 ppm (Musca domestica [1]): 80 to 100%
mortality at 500 ppm (Tetranychus urticae): < 50%
mortality at 500 ppm (Blattella germanica): < 50%
mortality at 500 ppm (Diabrotica balteata): < 50%
mortality at 500 ppm (Heliothis virescens): < 50%
mortality at 500 ppm (Spodoptera exigua): < 50%
mortality at 500 ppm (Myzus persicae): < 50%
mortality at 500 ppm (Nilaparvata lugens): < 50%
mortality at 500 ppm (Musca domestica [2]): < 50%

OC(COCc1ccc(F)c(Oc2ccccc2)c1)(c1ccc(Br)cc1)C(F)(F)F (stereo not drawn) [Compound 127, 1,1,1-Trifluoro-2-(4-bromophenyl)-3-(3-phenoxy-4-fluorobenzyloxy)propan-2-ol]
pest or weed control at 500 ppm (Musca domestica [1]): 80 to 100%
mortality at 500 ppm (Tetranychus urticae): < 50%
mortality at 500 ppm (Blattella germanica): < 50%
mortality at 500 ppm (Diabrotica balteata): 80 to 100%
mortality at 500 ppm (Heliothis virescens): < 50%
mortality at 500 ppm (Spodoptera exigua): 50 to 69%
mortality at 500 ppm (Myzus persicae): < 50%
mortality at 500 ppm (Nilaparvata lugens): < 50%
mortality at 500 ppm (Musca domestica [2]): 50 to 79%

OC(COCc1cccc(Oc2ccccc2)c1)(c1ccc2c(c1)OCO2)C(F)(F)F (stereo not drawn) [Compound 128, 1,1,1-trifluoro-2-(3,4-methylenedioxyphenyl)-3-(3-phenoxybenzyloxy)propan-2-ol]
pest or weed control at 500 ppm (Musca domestica [1]): < 50%
mortality at 500 ppm (Tetranychus urticae): < 50%
mortality at 500 ppm (Blattella germanica): < 50%
mortality at 500 ppm (Diabrotica balteata): 50 to 79%
mortality at 500 ppm (Heliothis virescens): 80 to 100%
mortality at 500 ppm (Spodoptera exigua): 70 to 100%
mortality at 500 ppm (Myzus persicae): < 50%
mortality at 500 ppm (Nilaparvata lugens): < 50%
mortality at 500 ppm (Musca domestica [2]): 50 to 79%

OC(COCc1cccc(Oc2ccc(Cl)cc2)c1)(c1ccc2c(c1)OCO2)C(F)(F)F (stereo not drawn) [Compound 129, 1,1,1-Trifluoro-2-(3,4-methylenedioxyphenyl)-3-(3-(4-chlorophenoxy)benzyloxy)propan-2-ol]
pest or weed control at 500 ppm (Musca domestica [1]): 80 to 100%
mortality at 500 ppm (Tetranychus urticae): < 50%
mortality at 500 ppm (Blattella germanica): < 50%
mortality at 500 ppm (Diabrotica balteata): < 50%
mortality at 500 ppm (Heliothis virescens): 50 to 79%
mortality at 500 ppm (Spodoptera exigua): 70 to 100%
mortality at 500 ppm (Myzus persicae): 50 to 79%
mortality at 500 ppm (Nilaparvata lugens): 80 to 100%
mortality at 500 ppm (Musca domestica [2]): 80 to 100%
